Where two headings read alike, the source gives them in different places.
Key:
[1] = system: HL-60 human promyelogenous leukemia cells
Source text: (§1) In this Example, the method used to examine hpao mRNA production by cultured cells undergoing apoptosis is described.

[2] = system: OVCAR-3 human ovarian carcinoma cells; details: approximately 50 μM, within 20 hrs
Source text: as §1

[3] = biological target: T1, mPAO (Mus musculus, UniProt Q8C0L6); experiment: HPLC analysis of PAO oxidation products; assay type: biochemical, murine
T1 construct: the full length cDNA of mpao was released by Nde I and Hind III treatment, and ligated into Nde I and Hind III sites of pET29c; made in house; host or cells: E. coli BL21 GOLD (DE3), plasmid pET-MPAO (pET29c)
T1 sequence (Q8C0L6 whole entry E184K/L285S/R416L/R417S/Q419R/E451A/V490I/S491G/V497A): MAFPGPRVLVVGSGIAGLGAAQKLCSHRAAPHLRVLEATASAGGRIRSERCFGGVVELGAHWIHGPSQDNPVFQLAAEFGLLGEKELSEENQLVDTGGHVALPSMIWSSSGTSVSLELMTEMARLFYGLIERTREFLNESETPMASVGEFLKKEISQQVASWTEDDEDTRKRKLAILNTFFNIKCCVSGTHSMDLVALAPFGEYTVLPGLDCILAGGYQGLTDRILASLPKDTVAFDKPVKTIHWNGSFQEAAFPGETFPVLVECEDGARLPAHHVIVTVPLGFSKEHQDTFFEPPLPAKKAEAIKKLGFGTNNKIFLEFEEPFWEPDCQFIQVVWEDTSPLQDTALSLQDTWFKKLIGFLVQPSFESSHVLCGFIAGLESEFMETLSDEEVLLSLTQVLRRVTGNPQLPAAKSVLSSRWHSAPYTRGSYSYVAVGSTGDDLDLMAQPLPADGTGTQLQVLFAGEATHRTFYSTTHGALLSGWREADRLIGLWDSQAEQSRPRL
Source text: In this example, methods are described for determining the nature of the products of substrate oxidation by PAO. In a solution at pH 7.6 containing catalase to destroy H2O2, mPAO and N^1-acetyl-Spm, at known concentrations, were allowed to react until the latter had been completely oxidized. mPAO and N^1-acetyl-Spd were similarly allowed to react. Both reactions solutions contained a known amount of N-(3-aminopropyl)-1,10-diaminodecane (Tocris Cookson) as an internal standard. […] Aliquots of these reaction mixtures were treated with dansyl chloride (5-dimethylamino-1-naphthalenesulfonyl chloride) obtained from Sigma. The resulting dansylated polyamine products from each reaction were analyzed by reverse-phase high-pressure liquid chromatography (HPLC) following established procedures (Hunter, Methods in Molecular Biology: Polyamine Protocols, Morgan (ed.) Human Press, Totowa, N.J., Vol. 79, Chapter 14, pp 119-123). […] Detection was accomplished with a Gilson Spetra/Glo fluorescence detector using a 7-51× excitation filter (330-400 nm) and a 3-72M emission filter (460-600 n m). […]
Aliquots of each of the above described enzyme-reaction solutions were treated with an equal volume of 2,4-dinitrophenylhydrazine (Acros Organics) solution (100 mg in 94 mL ethanol+6 mL of concentrated HCl). […] The 368-nm chromatograms were used for quantitative analyses.

Question: Which results are given for `CC(=O)NCCCNCCCCNCCCN` [N^1-acetyl-Spm, N^1-acetyl-spermine]?
Answer: HL-60 cell survival ([1]; 24 hrs, all tested concentrations): survived for 24 hrs; HL-60 cells survived ([1]; 72 hrs exposure, 0.05 mM): 100%; HL-60 cells killed ([1]; 72 hrs exposure, 0.1 mM): 30%; HL-60 cells killed ([1]; 72 hrs exposure, 0.2 mM): 50%; HL-60 cells killed ([1]; 72 hrs exposure, 0.5 mM): 80%; OVCAR-3 cells killed [2]: 100%; 3-acetamidopropanal produced on complete oxidation by PAO ([3]; 2,4-dinitrophenylhydrazine HPLC): equivalent amount; polyamine product of complete PAO oxidation (Spd or putrescine) ([3]; pH 7.6, catalase present, dansyl chloride HPLC): stoichiometric amounts

— US20050143472A1, “Novel treatment for pathologies associated with oxidative damage” (priority 2002, published 2005)
